The record followed here is patent publication US10449184B2, “Pharmaceutical compositions of therapeutically active compounds” (Agios Pharmaceuticals, Inc., priority 2014, dated 2019).

“Also recorded” adds a separate entry of the source.

In one series the test system is 2HG. Put plainly: Phase 1 clinical trial: plasma 2HG inhibition. The class given is in vivo, human. The following applies: all dose levels. The procedure: Samples collected for PK assessments also will be used to assess 2HG levels. In addition, subjects will have blood drawn for determination of 2HG levels at the screening assessment.
The 2HG baseline was taken at Day −3 pre-treatment 2HG inhibition estimated based on 2HG pre-treatment level and AUC0-10 hr post treatment. For the 100 mg BID and 300 mg QD Cohorts, 3 to 4 patients were measured per time point and for the 500 mg QD Cohort, 1 to 3 patients were measured per time point.

Series [1] in a line: Phase 1 clinical trial: pharmacokinetics after oral administration. To be noted: patients. The class given is in vivo, human. The procedure: A full 72-hour PK/PD profile will be conducted: subjects will be required to remain at the study site for 10 hours on Day −3 and return on Days −2, −1, and 1 for 24, 48, and 72 hour samples, respectively.
All subjects will undergo PK/PD assessments over a 10-hour period on both C1D15 and C2D1. Additional pre-dose urine and/or blood sampling will be conducted on C1D8, C1D22, C2D15, C3D1, C3D15, and on Day 1 of all subsequent cycles. Available bone marrow biopsy samples also will be assessed for 2HG levels.
The blood samples will also be used for the determination of 2HG concentrations and for evaluation of cholesterol and 4β-OH-cholesterol levels.
The PK/PD profile from Day −3 through Day 1 is optional for additional subjects enrolled in the dose escalation phase (i.e., for any subjects beyond the 3 initial subjects enrolled in a cohort) and is not required for subjects enrolled in the expansion cohorts.
All subjects will undergo 10-hour PK/PD sampling on C1D15 and C2D1 (i.e., on Days 15 and 29 of twice daily dosing). […] Blood samples also will be drawn on Days 8 and 22 of Cycle 1, Day 15 of Cycle 2, Days 1 and 15 of Cycle 3, and Day 1 of each cycle thereafter; all samples will be obtained prior to dosing. Additionally, one blood sample will be drawn at the End of Treatment Visit.

One may read the half-life as the time in which the quantity being followed falls by half. Lower therefore signals fast loss.

For `N#Cc1ccnc(N2C(=O)CC[C@H]2C(=O)N(c2cncc(F)c2)[C@H](C(=O)NC2CC(F)(F)C2)c2ccccc2Cl)c1` [Compound 1, (S)—N—((S)-1-(2-chlorophenyl)-2-((3,3-difluorocyclobutyl)amino)-2-oxoethyl)-1-(4-cyanopyridin-2-yl)-N-(5-fluoropyridin-3-yl)-5-oxopyrrolidine-2-carboxamide], in the series with 2HG (100 mg BID, 300 mg QD or 500 mg QD), the “plasma levels of 2HG” value is “reduced to a normal range; also recorded: reduced to normal ranges”. Moreover, the “plasma 2HG inhibition” value with 2HG (vs Day -3 pre-treatment level, AUC0-10 hr post treatment) is on record as “up to 98%”. This compound gave a half-life in series [1] (human, plasma) of 182 h. For the same compound, in series [1], the drug accumulation result is “drug accumulation” and the plasma exposure result is “high plasma exposure”.
